Results: PubChem BioAssay (NCI)
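A five-concentration, 48-hour dose response in 96-well plates underlies each endpoint, interpolated linearly between surrounding concentrations. GI50 is the concentration that inhibits growth by half. At the TGI there is no net growth.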

Tests used:
Assay in all cases: NCI tumour cell line growth inhibition, 48 h
[1] = system: MALME-3M melanoma
[2] = system: RPMI-8226 leukemia
[3] = system: A549 NSCLC
[4] = system: SNB-75 CNS
[5] = system: RXF 393 renal
[6] = system: COLO 205 colon
[7] = system: OVCAR-4 ovarian
[8] = system: T-47D breast
[9] = system: MDA-MB-231 breast

Structure (SMILES): CCCc1nc(NC#N)nc(C(=O)Nc2ccccc2)c1CC
- TGI [1]: > 100 µM
- TGI [2]: > 100 µM
- TGI [3]: > 100 µM
- TGI [4]: > 100 µM
- TGI [5]: > 100 µM

Structure (SMILES): CC1c2c(Cl)nc3ccccc3c2Oc2c1c(Cl)nc1ccccc21
- TGI [6]: > 100 µM
- TGI [1]: > 100 µM
- TGI [2]: > 100 µM
- TGI [3]: > 100 µM
- TGI [4]: > 100 µM
- TGI [5]: > 100 µM

Structure (SMILES): COc1ccc(CC2NCCc3c2[nH]c2ccccc32)cc1 (configuration not stated)
- TGI [6]: 40.6 µM
- TGI [7]: > 100 µM
- TGI [2]: > 100 µM
- TGI [3]: > 100 µM
- TGI [4]: > 100 µM

Structure (SMILES): CN(C)CC[PH+](c1ccccc1)c1ccccc1.CN(C)CC[PH+](c1ccccc1)c1ccccc1.[Cl-].[Pd+2]
- GI50 [6]: 80.2 µM
- TGI [6]: > 100 µM
- GI50 [1]: > 100 µM
- TGI [1]: > 100 µM
- GI50 [8]: > 100 µM
- TGI [8]: > 100 µM
- GI50 [7]: > 100 µM
- TGI [7]: > 100 µM
- GI50 [2]: 99.8 µM
- TGI [2]: > 100 µM
- GI50 [3]: > 100 µM
- TGI [3]: > 100 µM
- GI50 [9]: > 100 µM
- TGI [9]: > 100 µM

Structure (SMILES): O=C1/C(=C/c2ccc3c(c2)OCO3)SC2C=Nc3ccccc3N12 (configuration not stated)
- TGI [6]: > 100 µM
- TGI [1]: > 100 µM
- TGI [7]: > 100 µM
- TGI [3]: > 100 µM
- TGI [4]: > 100 µM
- TGI [5]: > 100 µM

Structure (SMILES): O=C(CCc1n[nH]c(=S)o1)Nc1ccccc1C(F)(F)F
- TGI [6]: > 100 µM
- TGI [1]: > 100 µM
- TGI [7]: > 100 µM
- TGI [2]: 85.1 µM
- TGI [4]: > 100 µM

Structure (SMILES): COc1cccc(C2=NC(C(C)C)CO2)c1 (configuration not stated)
- TGI [6]: > 100 µM
- TGI [1]: > 100 µM
- TGI [7]: > 100 µM
- TGI [2]: > 100 µM
- TGI [3]: > 100 µM
- TGI [4]: > 100 µM
- TGI [5]: > 100 µM

Structure (SMILES): Cn1cc(-c2csc(-c3c[nH]c4ccc(F)cc34)n2)c2cnccc21
- GI50 [1]: 1.94 µM
- TGI [1]: 3.46 µM
- GI50 [7]: 1.6 µM
- TGI [7]: 3.06 µM
- GI50 [3]: 1.83 µM
- TGI [3]: 3.42 µM
- GI50 [4]: 1.5 µM
- TGI [4]: 2.85 µM
- GI50 [5]: 1.78 µM
- TGI [5]: 3.25 µM
- GI50 [9]: 1.46 µM
- TGI [9]: 2.93 µM

Structure (SMILES): CC12CP(=O)(c3ccccc3)CC1C2(Cl)Cl (configuration not stated)
- TGI [6]: > 100 µM
- TGI [7]: > 100 µM
- TGI [2]: > 100 µM
- TGI [3]: > 100 µM
- TGI [4]: > 100 µM
- TGI [5]: > 100 µM

Structure (SMILES): CC(=O)Oc1c2c(c(O)c3ccccc13)C(n1cnc3c(ncn3C3OC(CO)C4OC(C)(C)OC43)c1=N)CCC2 (configuration not stated)
- TGI [6]: 37.6 µM
- TGI [1]: 23.4 µM
- TGI [2]: 18.7 µM
- TGI [3]: 35.4 µM
- TGI [4]: 32.3 µM
- TGI [5]: 32.3 µM

Structure (SMILES): O=c1ccn([C@H]2CSC[C@@H](CO)C2)c(=O)[nH]1
- TGI [1]: > 100 µM
- TGI [7]: > 100 µM
- TGI [2]: > 100 µM
- TGI [3]: > 100 µM
- TGI [4]: > 100 µM
